Test results from US20250368639A1, “SOLID FORMS OF A COMPOUND FOR TREATING OR PREVENTING HYPERURICEMIA OR GOUT” (ATOM THERAPEUTICS CO., LTD, priority 2022, published 2025).
Entries after “also recorded” stand apart in the source; their conditions may differ. Where two headings read alike, the source gives them in different places.

Columns and labels:
[1] = Dynamic vapor sorption/desorption (DVS); assay type: physicochemical
[2] = Single-dose pharmacokinetic study, oral and intravenous, in SD rats; assay type: in vivo, SD rat; settings: for AUC(0-inf): read-out: AUCINF—pred; for half-life: read-out: HL_Lambda_z (T1/2) (converted); for Vd/F: read-out: Vz—F—pred;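 on AUClast: AUClast in h·ng/mL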
Protocol: Form 1, Form 2, and Form 5D were each evaluated via a single-dose pharmacokinetic study following oral and intravenous administration in SD rats. […] Form 1, Form 2, and Form 5Dwere evaluated by rat pharmacokinetics study.
Male SD rat was purchased from Shanghai Sippr B&K Laboratory Animals Co., Ltd. The weight was 180 g˜200 g.
20% HP-β-CD was prepared from dissolving20 g of HP-β-CD (from Sigma) in 100 mL purified water. 0.5% CMC-Na was prepared from dissolving 1 g of CMC-Na (from Aladdin) in 200 mL purified water. The solutions were stored at 2-8 degree.
(§1) Group 1:4.95 mg (equivalent to 4.50 mg of anhydrous free base) of Form 1 was weighed out into a 20 ml bottle, and totally dissolved by 0.225 mL DMSO by sonication. After that, 4.275 mL of 20% HP-β-CD was added, mixed well by sonication. Finally, the pH value was adjusted to 7.0 by sodium hydroxide solution. The clear solution was obtained, and the concentration was 1 mg/mL.
Group 2:10.08 mg (equivalent to 9.164 mg of anhydrous free base) of Form 1 was weighed out into a 20 ml bottle, and then 9.164 mL of 0.5% CMC-Na was added. A white suspension was formed after sonicated by ultrasonic cell disruptor, and the concentration was 1 mg/mL.
Group 3:9.47 mg of Form 2 was weighed out into a 20 ml bottle, and then 9.470 mL of 0.5% CMC-Na was added. After sonicated, it was mixed well by homogenizer for 2 minutes. Finally, a white suspension was formed, and the concentration was 1 mg/mL.
Group 4:9.80 mg (equivalent to 8.909 mg of free base) of Form 5Dwas weighed out into a 20 mL bottle, and then 8.909 mL of 0.5% CMC-Na was added. After sonicated, it was mixed well by homogenizer for 2 minutes. Finally, a white suspension was formed, and the concentration was 1 mg/mL.
as §1, with “Group 5:1.94” for “Group 1:4.95”, “to 1.763” for “to 4.50”, “by 0.088” for “by 0.225”, “that, 1.675” for “that, 4.275”, “was 0.2” for “was 1”
The dose of intravenous administration was 1 mg/kg and 5 mg/kg, respectively. The oral dose was 10 mg/kg. Animals were fasted overnight before drug administration. After the drug administration, the rats were fed at the 4 hours.
About 150˜200 μL of blood was collected at the initial time (only intravenous), and at 0.25, 0.5, 1, 2, 4, 6, 8 and 24 h by jugular venipuncture blooding method. EDTA-K2 was selected as anticoagulant. Blood samples were centrifuged within one hour at 6000 rpm for 8 minutes (placed on wet ice before centrifugation). The supernatant was stored at −20° C. for LC-MS/MS analysis.
The computer program Microsoft Office Excel 2007 (Microsoft, USA) was used to process data and graphics. The pharmacokinetic parameters were calculated by WinNolin 6.4 software.

[3] = Long-term stability of Compound I Form 2 (XRPD); assay type: physicochemical
Protocol: The stability of Compound I Form 2 was analyzed by the following two experiments.
Experiment A: The following is an X-ray Powder Diffraction Analytical method used to obtain the data shown in FIG. 43 and FIG. 44, and which complies with ChP<0451>/USP/NF<941>/EP10.6 2.9.33. Standard XRPD patterns were collected using a Bruker D8 Advance diffractometer or equivalent instrument.
Parameters for collecting the XRPD shown in FIG. 43 and FIG. 44 is as follows:
The XRPD patterns shown in FIG. 45 and FIG. 46 were collected using a Bruker D2 Phaser X-ray diffractometer. Detector: PSD LynxEye; Sample holder: Zero background sample holder or equivalent; Software: DIFFRAC. Measurement Center, Version V6.5.0 or equivalent; Diffractometer Settings: Diffractometer type: 02 phaser; Goniometer Type: Theta/Theta; Sample Stage: Standard rotating stage; Goniometer Diameter: 282.2 mm; Divergence slit: 1.0 mm; Primary seller slit: 2.5°; Secondary seller slit: 2.5°; Airscatter screen module: 1.0 mm; Tube Element: Cu; Tube parameters: voltage 30 kV; current 10 mA; Scan Parameters: SSD160: Locked coupled; SSD160-2: coupled Two Theta/Theta Scan Type: SSD160: Locked coupled; SSD160-2: coupled Two Theta/Theta; Continuous PSD fast Scan Mode: Continuous PSD fast scan; Rotation Speed: 20 rpm; Start: 3° ˜40° (2 0); Scan Step: 0.02° (2 0); Scan Speed: 0.2s/step; Detector opening: 4.5°; Sample Analysis; Test the sample with the Diffractometer Settings and Scan Parameters. The powder X-ray diffraction pattern of the sample was recorded and calculations were performed according to Bruker D2 Phaser X-ray Diffractometer User Manual V6-Identification of Crystal Form by X-Ray Powder Diffraction (XRPD)-Bruker D2 Phaser.

[4] = male SD rats, oral 10 mg/kg, Average (Table 10)
[5] = male, SD, rat, plasma, po, 10 mg/kg, male SD rats, oral 10 mg/kg, Average (Table 10)
[6] = male, SD, rat, plasma, po, 10 mg/kg, male SD rats, oral 10 mg/kg, individual rats 301/302/303 (c1/c2/c3)

Q: What does the source list for `CCc1nc2ccccn2c1C(=O)c1cc(Br)c(O)c(C#N)c1` [Form 2, 3-bromo-5-[(2-ethylimidazo[1,2-a]pyridin-3-yl)carbonyl]-2-hydroxybenzonitrile]?
A: DVS (80% RH) ([1]; 25° C., 80% RH): 0.40%; Water remaining within the sample (DVS desorption) ([1]; relative humidity decreased back to 0%): about 3.4%; Hygroscopicity (DVS) ([1]; relative humidity less than 80%): low hygroscopicity; Crystal form after DVS analysis (XRPD) ([1]; sample following DVS analysis): converted into Form 1; Water absorbed (DVS) ([1]; when relative humidity reached 85% RH): about 3.8%; Exposure and bioavailability (words, comparison) ([2]; SD rats, oral administration 10 mg/kg, 10 mg/kg): higher dose exposure and bio-availability than Form 1; also recorded: higher exposure (AUC0-1) and better bioavailability than Form 1; also recorded: approximately the same as Form 5D; also recorded: sufficiently high bioavailability; AUClast [2, 4]: 88482.4 ng·h/mL; Cl—F—pred [2, 4]: 2 mL/min/kg; F ([2]; male SD rats, oral 10 mg/kg, calculated by intravenous administration of 1 mg/kg, Average (Table 10)): 50.98%; Cmax [2, 5]: 7950 ng/mL; MRT last [2, 5]: 6.12 h; Tmax [2, 5]: 4 h; AUC(0-inf) [2, 5]: 89100 ng·h/mL; half-life [2, 5]: 3.08 h; Vd/F [2, 5]: 0.52 L/kg; AUC(0-t) [2, 6]: 108000 ng·h/mL; Cmax [2, 6]: 8490 ng/mL; MRT last [2, 6]: 6.15 h; Tmax [2, 6]: 4 h; AUC(0-inf) [2, 6]: 92400 ng·h/mL; half-life [2, 6]: 3.32 h; Vd/F [2, 6]: 0.45 L/kg; Period over which the form remains stable (XRPD) ([3]; Experiment A, 25° C.±2° C./60% RH±5% RH): at least 12 months; Period over which the form remains stable (XRPD) ([3]; Experiment A, 40° C.±2° C./75% RH±5% RH): at least 6 months; Period over which the form remains stable (XRPD) ([3]; Experiment B, 25° C.±2° C./60% RH±5% RH): at least 48 months; Period over which the form remains stable (XRPD) ([3]; Experiment B, 40° C.±2° C./75% RH±5% RH): at least 6 months
